Consider 30 compounds from PubChem BioAssay (NCI).

“And” between values parts separate entries of the source, which are not always exact repeats. Equal values may be shown once.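 Values below derive from 48-hour exposures of cells grown in 96-well plates, with endpoints linearly interpolated between the two concentrations bracketing the appropriate inhibition level. Here, GI50 denotes the concentration required for 50% inhibition of growth. The concentration for full growth arrest is given as TGI.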

Common to all, as to experiment: NCI-60 cell line screen, 48 h
Assay [1] deals with NCI-H460 lung.
Assay [2] deals with 786-0 renal.
Assay [3] has as its system OVCAR-5 ovarian.
The test system of assay [4] is SF-539 CNS.
For assay [5], the system named is M14 melanoma.
The test system of assay [6] is UO-31 renal.
Assay [7] relates to EKVX NSCLC.
Assay [8] deals with SK-OV-3 ovarian.
For assay [9], the system named is SF-268 CNS.
Assay [10] relates to HS 578T breast.
Assay [11] deals with T-47D breast.

Regarding `CCOc1ccccc1NC(=O)C1=C(C)NC(C)=C(C(=O)Nc2ccccc2OCC)C1c1ccc([N+](=O)[O-])cc1`, the TGI in assay [1], in assay [2], in assay [3], in assay [4], in assay [5] and in [6] was above 100 µM throughout. Also, the TGI in assay [7], in assay [8] and in assay [9] was above 100 µM throughout.

With `CCOC(=O)c1c(-c2ccccc2)c(C)cn1C`, the TGI in assay [1], in assay [2], in assay [3], in assay [4], in assay [5] and in assay [6] was above 10 µM each time. For the same compound, the TGI in assay [7], in [8], in assay [9] and in assay [10] was above 10 µM in each case.

Consider `COc1cc(CCc2ccc(OC(C)=O)cc2)cc(OC)c1OC`, for which the TGI in assay [1], in [2], in [3], in assay [4], in assay [5] and in assay [6] was above 100 µM throughout. For the same compound, the TGI in assay [7] and in [9] was above 100 µM throughout.

In the case of `O=C(NCc1ccccc1Cl)c1c(O)c2ccccc2[nH]c1=O`, the TGI was above 100 µM in [1]; 36.5 µM in assay [2]; above 100 µM in [3]; above 100 µM in assay [4]; 33.4 µM in assay [6]; above 100 µM in assay [7]. For the same compound, the TGI in assay [9] and in assay [10] was above 100 µM throughout.

`Cc1ccc(-n2cc(-c3ccc(Cl)cc3)c3c(=N)n(N)cnc32)cc1`: the TGI in assay [1] turned out to be 22.2 µM; in assay [2] it was 24.4 µM; in assay [3], 27.9 µM; in assay [4], 27 µM; in assay [5], 17.2 µM; in [6] it was 24 µM. Also, the TGI in assay [7] came out at 29.9 µM; in [8], 31.5 µM; in [9] it was 25.7 µM; in assay [10], 17.5 µM.

As for `Cc1nc(-n2nc(-c3ccccc3)cc2-c2ccccc2)sc1C(=O)/C=C/c1ccccc1`, the TGI in [1], in assay [2], in [3], in [4], in assay [6] and in assay [7] was above 100 µM each time. The TGI in assay [8] and in assay [9] was above 100 µM in each case.

On to `CC(C)=CCCC1(C)C2COC(=O)C21` (configuration not stated), for which, in [1], the GI50 is > 100 µM and 19.3 µM. Also, the TGI was > 100 µM and 34.1 µM in [1]; above 100 µM in assay [2]; above 100 µM in assay [3]; above 100 µM in assay [6]; above 100 µM in assay [7]; above 100 µM in assay [8]. Moreover, in [9], the TGI is above 100 µM.

Turning to `C/C(CC(=O)Nc1cccc([N+](=O)[O-])c1)=N\NC(=O)C[n+]1ccccc1`, the TGI in [1], in assay [2], in [3], in assay [4], in assay [5] and in assay [6] was above 100 µM in each case. The TGI in [7], in assay [8] and in [9] was above 100 µM each time.

Turning to `O=C1CNN=C(Cn2nc(-c3ccccc3)c3ccccc3c2=O)N1`, the TGI in [1], in assay [2], in [3], in assay [4], in assay [5] and in assay [6] was above 100 µM in each case. Moreover, the TGI in assay [8] and in assay [9] was above 100 µM throughout.

Regarding `NC(N)=NCCCC(NC(=O)c1c2ccccc2nc2ccccc12)C(=O)O` (configuration not stated), the TGI in [1], in [2], in [3], in assay [4], in [5] and in assay [6] was above 100 µM throughout. Further, the TGI in assay [7], in assay [8] and in [9] was above 100 µM each time.

For `O=c1[nH]c2ccc([N+](=O)[O-])cc2nc1/C(=N/Nc1ccccc1)C(O)c1ccco1` (configuration not stated), the TGI in assay [1], in assay [2], in [3], in [4], in assay [5] and in [6] was above 100 µM each time. Also, the TGI in [7], in assay [8] and in assay [9] was above 100 µM throughout.

For `O=C(c1ccccc1)c1cc(Cl)ccc1NCn1nnc2ccccc21`, the TGI in assay [1], in assay [2], in assay [4], in [5], in assay [6] and in assay [7] was above 100 µM each time. The compound further registered a TGI in assay [8] above 100 µM.

In the case of `c1ccc(Nc2nnc(CCCCCCCCc3nnc(Nc4ccccc4)o3)o2)cc1`, the TGI in [1], in assay [2], in assay [3], in assay [4], in [5] and in assay [6] was above 100 µM each time. Further, the TGI in assay [7], in assay [8] and in [9] was above 100 µM each time.

Consider `O=CC1=CCC2c3[nH]c4ccccc4c3CCN2C1` (configuration not stated), for which the TGI in assay [1], in [2], in assay [3], in assay [4], in assay [7] and in [8] was above 396 µM in each case. Besides, the TGI in assay [9] was above 396 µM.

Consider `O=c1cccccc1[O-].O=c1cccccc1[O-].O=c1cccccc1[O-].[Sm+3]`, for which the TGI in assay [1], in assay [2], in assay [3], in assay [4], in [5] and in assay [6] was above 100 µM in each case. Moreover, the TGI in [7] and in assay [8] was above 100 µM each time. For the same compound, the GI50 in assay [4] is 29.1 µM.

As for `S=c1[nH]nc(CCCCCCCCc2n[nH]c(=S)o2)o1`, the TGI in [1], in assay [2], in assay [3], in [4], in assay [5] and in [6] was above 100 µM each time. Besides, the TGI in assay [7], in assay [8] and in assay [9] was above 100 µM each time.

As to `O=C(/C(=C/c1ccc(O)cc1)c1ccccc1)c1ccccc1`, the TGI came to 38.4 µM in assay [1]; 34.5 µM in assay [2]; 32 µM in assay [3]; 30.3 µM in assay [4]; 30.9 µM in assay [5]; 29.4 µM in assay [6]. For the same compound, the figures for the TGI in [7], in assay [8] and in assay [9] were 45.8 µM, 40.2 µM and 34.6 µM, respectively.

Consider `C=CCN1C(=O)CC(=O)N(NC2=NNC3(C(=O)N2)c2ccccc2-c2ccccc23)C1=S`, for which the TGI in assay [1], in assay [2], in [3], in assay [4], in assay [5] and in [6] was above 100 µM each time. In addition, the TGI in assay [7] was above 100 µM; in assay [8], above 100 µM; in [9], above 100 µM; in assay [10], 66.1 µM.

Take `COc1ccc2c(c1)[n+](=O)c(C(C)=O)c(C)n2[O-]`: the TGI in assay [1], in assay [2], in assay [3], in assay [4], in assay [5] and in [6] was above 100 µM throughout. The TGI in assay [7], in assay [8] and in [9] was above 100 µM throughout.

As for `CC1=CCN(c2ccccn2)OC1c1ccccc1` (configuration not stated), the TGI in [1], in assay [2], in [3], in [4], in assay [5] and in [6] was above 100 µM in each case. In addition, the TGI in assay [7], in assay [8] and in [9] was above 100 µM throughout.

Take `COC(=O)C1CCC(=O)N1/C(C)=N/NC(=O)Nc1ccc(Cl)c(Cl)c1` (configuration not stated): the TGI in [1], in [2], in assay [4], in [5], in [6] and in assay [7] was above 100 µM in each case. The TGI in assay [8] and in [9] was above 100 µM in each case.

`COC1OC(C(=O)O)C2OC(C)(C)OC12` (configuration not stated): the TGI in assay [1], in [2], in [3], in assay [4], in assay [5] and in [6] was above 100 µM each time. In addition, the TGI in assay [7], in [8] and in [9] was above 100 µM throughout.

Take `COC(=O)CC1CC2(C(=O)OC)c3[nH]c4ccccc4c3CCN2C1=O` (configuration not stated): the TGI in [1], in assay [2], in [3], in [4], in assay [5] and in assay [6] was above 100 µM in each case. Also, the TGI in assay [7], in [8] and in assay [9] was above 100 µM each time.

Consider `Cc1cc2c(cc1Cl)Sc1n[nH]c(=O)n1S2(=O)=O`, for which the TGI in assay [1], in assay [2], in [3], in [4], in [5] and in [6] was above 100 µM in each case. Also, the TGI in assay [7], in assay [8], in assay [9] and in assay [10] was above 100 µM throughout.

Consider `O=c1c2cc(I)ccc2nc(-c2cccs2)n1O`, for which the TGI in assay [1] is above 100 µM; in assay [2], above 100 µM; in [3], above 100 µM; in assay [4], above 100 µM; in assay [11], 77.5 µM; in assay [5], above 100 µM. In addition, the TGI in [6], in assay [7] and in [9] was above 100 µM in each case.

Regarding `COc1ccc(C23OCC(Cc4cc(OC)c(OC)cc42)C3CO)cc1OC` (configuration not stated), the TGI in assay [1], in [2], in assay [3], in assay [4], in assay [11] and in assay [5] was above 100 µM throughout. The TGI in [6], in assay [7] and in assay [8] was above 100 µM each time.

Consider `Cc1nc(Cc2n[nH]c(C)n2)n[nH]1`, for which the TGI in assay [2], in [3], in [4], in assay [5], in assay [6] and in [7] was above 100 µM throughout. In addition, the TGI in assay [8] and in assay [9] was above 100 µM in each case.

Take `Cc1cc(C)n2c(nc3ccccc32)c1C#N`: the TGI in assay [2], in assay [3], in assay [4], in assay [11], in assay [5] and in [6] was above 100 µM in each case. Further, the TGI in assay [7] and in assay [8] was above 100 µM throughout.

Turning to `c1cc2c(cc1[C@@H]1OC[C@@H]3[C@H]1CO[C@H]3c1ccc3c(c1)OCO3)OCO2`, the TGI in assay [1], in assay [2], in assay [3], in assay [4], in assay [11] and in assay [5] was above 100 µM each time. For the same compound, the TGI in assay [6] is above 100 µM; in assay [7], 83.6 µM; in assay [8], above 100 µM; in assay [9] it was above 100 µM.

Take `N#Cc1c(N)nc(Sc2ccccc2N)c(C#N)c1-c1ccccc1`: the TGI in assay [1] was 50.6 µM; in [2], 63.3 µM; in [3] it was above 100 µM; in [4], 80.1 µM; in assay [5], above 100 µM; in [6] it was 34.3 µM. Also, the results for the TGI in assay [7] and in assay [9] were above 100 µM and 75.3 µM, respectively.
